This note sets out measurements from patent publication US20220071939A1, “COMPOUNDS AND METHODS FOR THE TREATMENT OF POLYCYSTIC KIDNEY DISEASE (PKD)” (Resilio Therapeutics, LLC, priority 2018, published 2022).

“Also recorded” adds a separate entry of the source.

The subject of series [1] is human renal mixed epithelial cells in 2D cultures from Autosomal Dominant Polycystic Kidney Disease (ADPKD) donors. The series can be described thus: 2D cellular toxicity assay (viability by ATP release, Cell TiterGlo kit). It is filed as cell-based. As for the experimental part: (§1) FIG. 1 is a plot of cell viability as a function of difluoromethyl omithine (DFMO) concentration, showing the viability of primary ADPKD cells in 2D culture as measured by ATP release using Cell TiterGlo kit. Studies were performed on DFMO, the metabolic product of DFMO-prodrugs, in primary cell cultures of 2 dimensional (2D) cellular toxicity assays, 3 dimensional (3D) cyst formation assays and 3D tubulogenesis assays. DFMO was less than 10% toxic (90% viable) to human renal mixed epithelial cells in 2D cultures from Autosomal Dominant Polycystic Kidney Disease (ADPKD) donors up to 10 mM DFMO concentration as measured using a Cell Titer Go kit (FIG. 1). In the 3D cyst cultures, a population of mixed cells from a surgically resected cyst from a donor ADPKD kidney is combined with human kidney fibroblasts to grow cysts in a proprietary media (Discovery BioMed, Inc) that contains conditioned media from kidney fibroblasts and a Biogel matrix (DiscoveryBioMed). Using light microscopy to count cysts, the number of cysts formed in 3D cultures decreased in a dose-dependent fashion to 50% of controls at 10 mM DFMO (FIG. 2).
(In general: In ATP-based viability assays light output follows the ATP content of the culture.)

Series [2] has as its system cysts formed from ADPKD donor cells in 3D cultures. The series can be described thus: 3D cyst formation assay (cyst number and cyst size by light microscopy). The format is cell-based, human. Conditions: 3D culture. Here is the method: as §1, with “Studies” for “FIG. 1 is a plot of cell viability as a function of difluoromethyl omithine (DFMO) concentration, showing the viability of primary ADPKD cells in 2D culture as measured by ATP release using Cell TiterGlo kit. Studies”, “2). Photomicrographs of cysts formed from ADPKD donor cells in 3D cultures show a time dependent change in cyst size.” for “2).”

The subject of series [3] is normal human kidney (NHK) cells in 3D cultures. The series can be described thus: 3D tubulogenesis assay. The format is cell-based. Conditions: 10 mM DFMO. Here is the method:
As a further proof of the potential utility of DFMO/DFMO-prodrugs in ADPKD patients, we also performed a tubulogenesis assay with normal human kidney cells in 3D cultures. Vehicle treated normal human kidney (NHK) cells form tubules by Day 3 in 3D cultures (FIG. 5) as do 10 mM DFMO-treated NHK cells, which also form tubules under the same conditions (FIG. 6).

Where [4] appears, read: 2D culture, up to 10 mM DFMO, Cell Titer Glo (ATP release), FIG. 1.

difluoromethylornithine [DFMO]: in series [1] (setting [4]), the cell viability (usually a read-out of living cells in per cent, often relative to untreated cells) is on record as 90% and the “toxicity to ADPKD cells” value is “less than 10%”. Further, the “cell killing in 2D cultures” value in series [1] (ADPKD cells, 2D cultures) is on record as “not killed”. Also, the “cyst size over time” value in series [2] (10 mM DFMO, Day 0 to Day 4, FIG. 4) is given as “decreases with time; also recorded: slight increase on Day 1 followed by a steady decrease in cyst size by Day 4 when the cyst is smaller than on Day 0”. In addition, the “number of cysts formed, relative to controls” value in series [2] (10 mM DFMO, FIG. 2) is on record as 50 % of controls. For the same substance, in series [2] (FIG. 2), the “number of cysts versus DFMO concentration” value is “decrease in a dose-dependent manner”. In series [3] (Day 3, FIG. 6), the “tubule formation” value was “form tubules”. Also, the “tubule numbers, maturation and elongation versus vehicle” value in series [3] (visual comparison over time) was “appear similar”.
